The values below come from ChEMBL document CHEMBL3763052, “Novel N-acyl-carbazole derivatives as 5-HT7R antagonists” (Eur J Med Chem, 2016).

Test [1] has as its target T1, 5-hydroxytryptamine receptor 7 (Homo sapiens, UniProt P34969). The test is described as follows: Displacement of [3H]LSD from 5-HT7 receptor (unknown origin) expressed in CHO-K1 cells by liquid scintillation counting method. Format: cell-based. For orientation: In a radioligand displacement assay an active substance lowers the binding of a labelled ligand.
Test [2] deals with T1, 5-hydroxytryptamine receptor 7. The test is described as follows: Binding affinity to recombinant 5-HT7 receptor (unknown origin) after 1.5 hrs by radioligand displacement assay.
Test [3] has as its target T2, 5-hydroxytryptamine receptor 1A (Homo sapiens, UniProt P08908).
T2 sequence (P08908 whole entry): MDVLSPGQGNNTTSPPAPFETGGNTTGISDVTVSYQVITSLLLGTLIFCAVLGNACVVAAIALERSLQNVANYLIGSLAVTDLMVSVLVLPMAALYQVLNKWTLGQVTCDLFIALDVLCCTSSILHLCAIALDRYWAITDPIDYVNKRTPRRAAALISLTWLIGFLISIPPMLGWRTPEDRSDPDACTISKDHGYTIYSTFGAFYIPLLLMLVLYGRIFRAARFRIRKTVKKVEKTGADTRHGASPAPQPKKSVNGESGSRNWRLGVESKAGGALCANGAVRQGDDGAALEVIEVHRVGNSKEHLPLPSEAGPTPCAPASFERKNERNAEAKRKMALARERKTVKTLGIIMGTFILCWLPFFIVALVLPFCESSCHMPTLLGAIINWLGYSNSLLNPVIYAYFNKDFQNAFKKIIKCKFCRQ
The test is described as follows: Binding affinity to recombinant 5-HT1A receptor (unknown origin) after 1.5 hrs by radioligand displacement assay.

The species named for test [4] is Homo sapiens. In words: Selectivity index, ratio of Ki for recombinant 5-HT1A receptor (unknown origin) to Ki for recombinant 5-HT7 receptor (unknown origin).
Test [5] addresses T3, 5-hydroxytryptamine receptor 1B (Homo sapiens, UniProt P28222). The test is described as follows: Binding affinity to recombinant 5-HT1B receptor (unknown origin) after 1.5 hrs by radioligand displacement assay.
Test [6] has as its target 5-hydroxytryptamine receptor 1D (Homo sapiens, UniProt P28221). In words: Binding affinity to recombinant 5-HT1D receptor (unknown origin) after 1.5 hrs by radioligand displacement assay.
The species named for test [7] is Homo sapiens. The test is described as follows: Selectivity index, ratio of Ki for recombinant 5-HT1D receptor (unknown origin) to Ki for recombinant 5-HT7 receptor (unknown origin).
Test [8] has as its target T4, 5-hydroxytryptamine receptor 2A (Homo sapiens, UniProt P28223). The test is described as follows: Binding affinity to recombinant 5-HT2A receptor (unknown origin) after 1.5 hrs by radioligand displacement assay.
In test [9] the target is 5-hydroxytryptamine receptor 2B (Homo sapiens, UniProt P41595). In words: Binding affinity to recombinant 5-HT2B receptor (unknown origin) after 1.5 hrs by radioligand displacement assay.
Chain of 5-hydroxytryptamine receptor 2B (P41595 whole entry): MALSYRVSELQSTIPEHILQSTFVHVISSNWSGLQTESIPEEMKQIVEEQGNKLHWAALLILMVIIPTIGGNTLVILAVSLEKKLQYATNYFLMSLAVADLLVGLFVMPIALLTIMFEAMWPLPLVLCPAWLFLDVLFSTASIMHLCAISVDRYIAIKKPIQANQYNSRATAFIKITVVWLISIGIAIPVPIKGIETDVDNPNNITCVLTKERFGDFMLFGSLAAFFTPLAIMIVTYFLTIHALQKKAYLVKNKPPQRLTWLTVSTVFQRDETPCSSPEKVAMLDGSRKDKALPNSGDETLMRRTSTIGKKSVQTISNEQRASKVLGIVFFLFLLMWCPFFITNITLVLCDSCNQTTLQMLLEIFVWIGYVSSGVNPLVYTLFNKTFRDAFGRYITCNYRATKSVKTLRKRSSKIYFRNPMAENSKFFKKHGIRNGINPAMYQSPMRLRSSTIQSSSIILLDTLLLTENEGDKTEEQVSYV
For test [10], the species on record is Homo sapiens. The test is described as follows: Selectivity index, ratio of Ki for recombinant 5-HT2B receptor (unknown origin) to Ki for recombinant 5-HT7 receptor (unknown origin).
The target in test [11] is T5, 5-hydroxytryptamine receptor 2C (Homo sapiens, UniProt P28335).
T5 sequence (P28335 whole entry): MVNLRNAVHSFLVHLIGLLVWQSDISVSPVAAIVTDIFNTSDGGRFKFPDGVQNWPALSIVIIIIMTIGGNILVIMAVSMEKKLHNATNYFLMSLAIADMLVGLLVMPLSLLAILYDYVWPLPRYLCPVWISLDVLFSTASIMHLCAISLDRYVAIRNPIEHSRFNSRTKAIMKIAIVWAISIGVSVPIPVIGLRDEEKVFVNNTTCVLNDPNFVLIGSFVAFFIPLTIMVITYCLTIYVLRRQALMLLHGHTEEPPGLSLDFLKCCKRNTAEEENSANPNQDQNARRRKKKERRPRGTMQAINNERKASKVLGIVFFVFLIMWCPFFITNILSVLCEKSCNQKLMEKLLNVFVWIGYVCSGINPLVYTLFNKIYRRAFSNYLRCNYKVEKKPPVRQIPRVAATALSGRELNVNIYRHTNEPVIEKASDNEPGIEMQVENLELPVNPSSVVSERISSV
The test is described as follows: Binding affinity to recombinant 5-HT2C receptor (unknown origin) after 1.5 hrs by radioligand displacement assay.

For test [12], the species on record is Homo sapiens. In words: Selectivity index, ratio of Ki for recombinant 5-HT2C receptor (unknown origin) to Ki for recombinant 5-HT7 receptor (unknown origin).
Test [13] deals with T6, 5-hydroxytryptamine receptor 3A (Homo sapiens) (UniProt P46098).
T6 sequence (whole entry): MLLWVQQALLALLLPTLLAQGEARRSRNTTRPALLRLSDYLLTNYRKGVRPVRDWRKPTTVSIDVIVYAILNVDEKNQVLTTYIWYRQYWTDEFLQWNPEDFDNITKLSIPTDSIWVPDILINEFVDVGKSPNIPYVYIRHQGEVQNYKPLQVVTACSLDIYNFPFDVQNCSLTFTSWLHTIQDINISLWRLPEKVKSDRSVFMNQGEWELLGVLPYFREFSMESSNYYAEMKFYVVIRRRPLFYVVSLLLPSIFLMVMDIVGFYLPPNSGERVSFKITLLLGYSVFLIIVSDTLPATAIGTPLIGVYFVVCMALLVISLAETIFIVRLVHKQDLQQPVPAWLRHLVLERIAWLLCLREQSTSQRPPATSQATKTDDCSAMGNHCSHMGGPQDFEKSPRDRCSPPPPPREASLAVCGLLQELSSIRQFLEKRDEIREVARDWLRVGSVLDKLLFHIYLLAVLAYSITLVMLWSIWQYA
In words: Binding affinity to recombinant 5-HT3 receptor (unknown origin) at 10 uM after 1.5 hrs by radioligand displacement assay.

For test [14], the target named is 5-hydroxytryptamine receptor 5A (Homo sapiens, UniProt P47898). The test is described as follows: Binding affinity to recombinant 5-HT5 receptor (unknown origin) after 1.5 hrs by radioligand displacement assay.
Chain of 5-hydroxytryptamine receptor 5A (P47898 whole entry): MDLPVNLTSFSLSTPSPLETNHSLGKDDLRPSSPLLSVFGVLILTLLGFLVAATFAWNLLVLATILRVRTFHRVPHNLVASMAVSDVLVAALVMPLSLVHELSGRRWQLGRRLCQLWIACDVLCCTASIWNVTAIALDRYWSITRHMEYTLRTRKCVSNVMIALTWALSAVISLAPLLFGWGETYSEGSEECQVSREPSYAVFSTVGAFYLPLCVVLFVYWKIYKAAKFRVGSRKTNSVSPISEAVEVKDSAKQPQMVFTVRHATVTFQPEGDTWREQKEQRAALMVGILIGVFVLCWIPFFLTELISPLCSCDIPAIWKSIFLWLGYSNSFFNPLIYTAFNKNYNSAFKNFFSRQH
The species named for test [15] is Homo sapiens. The test is described as follows: Selectivity index, ratio of Ki for recombinant 5-HT5 receptor (unknown origin) to Ki for recombinant 5-HT7 receptor (unknown origin).
Test [16] addresses T7, 5-hydroxytryptamine receptor 6 (Homo sapiens, UniProt P50406). The test is described as follows: Binding affinity to recombinant 5-HT6 receptor (unknown origin) at 10 uM after 1.5 hrs by radioligand displacement assay.
For another test, the system named is Mus musculus. The test is described as follows: Antidepressant activity in ICR mouse assessed as immobility time at 50 mg/kg, iv administered 30 mins before testing by forced swim test (reference value: 159.1 sec). Format: functional.
In test [17] the target is T1, 5-hydroxytryptamine receptor 7. In words: Displacement of [3H]LSD from 5-HT7 receptor (unknown origin) expressed in CHO-K1 cells at 10 uM by liquid scintillation counting method. Format: cell-based.
Test [18] has as its target T3, 5-hydroxytryptamine receptor 1B. The test is described as follows: Binding affinity to recombinant 5-HT1B receptor (unknown origin) at 10 uM after 1.5 hrs by radioligand displacement assay.
Test [19] addresses T4, 5-hydroxytryptamine receptor 2A. In words: Binding affinity to recombinant 5-HT2A receptor (unknown origin) at 10 uM after 1.5 hrs by radioligand displacement assay.
In test [20] the target is T7, 5-hydroxytryptamine receptor 6. The test is described as follows: Binding affinity to recombinant 5-HT6 receptor (unknown origin) after 1.5 hrs by radioligand displacement assay.
Test [21] is filed under the species Homo sapiens. In words: Selectivity index, ratio of Ki for recombinant 5-HT6 receptor (unknown origin) to Ki for recombinant 5-HT7 receptor (unknown origin).

T4 sequence (P28223 whole entry): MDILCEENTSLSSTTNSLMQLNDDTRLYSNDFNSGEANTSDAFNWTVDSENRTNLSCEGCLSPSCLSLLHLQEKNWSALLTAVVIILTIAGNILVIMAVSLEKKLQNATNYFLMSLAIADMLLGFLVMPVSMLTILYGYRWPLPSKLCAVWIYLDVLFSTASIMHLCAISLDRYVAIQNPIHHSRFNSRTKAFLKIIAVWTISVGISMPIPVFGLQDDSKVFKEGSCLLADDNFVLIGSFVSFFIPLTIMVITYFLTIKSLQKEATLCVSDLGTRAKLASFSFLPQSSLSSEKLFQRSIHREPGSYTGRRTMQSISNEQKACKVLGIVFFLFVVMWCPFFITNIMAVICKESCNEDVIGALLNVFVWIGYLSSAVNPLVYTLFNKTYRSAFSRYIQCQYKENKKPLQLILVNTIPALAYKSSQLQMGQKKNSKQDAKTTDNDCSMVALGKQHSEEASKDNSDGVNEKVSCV
Chain of 5-hydroxytryptamine receptor 1D (P28221 whole entry): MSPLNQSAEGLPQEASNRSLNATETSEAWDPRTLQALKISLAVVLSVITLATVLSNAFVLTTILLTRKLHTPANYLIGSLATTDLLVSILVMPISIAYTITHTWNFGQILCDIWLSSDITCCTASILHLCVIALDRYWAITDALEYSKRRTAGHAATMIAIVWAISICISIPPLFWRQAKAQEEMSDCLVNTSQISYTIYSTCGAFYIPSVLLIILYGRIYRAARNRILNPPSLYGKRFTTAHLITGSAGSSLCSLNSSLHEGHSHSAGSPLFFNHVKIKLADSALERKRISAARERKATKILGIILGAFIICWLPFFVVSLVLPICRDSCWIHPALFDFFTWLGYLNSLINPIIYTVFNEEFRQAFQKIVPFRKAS
T7 sequence (P50406 whole entry): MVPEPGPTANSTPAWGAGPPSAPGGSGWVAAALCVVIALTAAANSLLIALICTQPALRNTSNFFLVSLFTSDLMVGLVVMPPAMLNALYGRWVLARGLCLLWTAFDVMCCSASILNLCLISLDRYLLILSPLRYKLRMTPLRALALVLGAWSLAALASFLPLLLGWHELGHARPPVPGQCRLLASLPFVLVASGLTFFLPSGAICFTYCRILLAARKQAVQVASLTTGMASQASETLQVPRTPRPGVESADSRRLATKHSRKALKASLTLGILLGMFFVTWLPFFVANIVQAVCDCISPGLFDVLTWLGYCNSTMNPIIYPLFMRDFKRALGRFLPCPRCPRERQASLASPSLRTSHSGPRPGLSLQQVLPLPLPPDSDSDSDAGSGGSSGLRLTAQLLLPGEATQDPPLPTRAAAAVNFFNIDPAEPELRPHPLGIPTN
T1 sequence (P34969 whole entry): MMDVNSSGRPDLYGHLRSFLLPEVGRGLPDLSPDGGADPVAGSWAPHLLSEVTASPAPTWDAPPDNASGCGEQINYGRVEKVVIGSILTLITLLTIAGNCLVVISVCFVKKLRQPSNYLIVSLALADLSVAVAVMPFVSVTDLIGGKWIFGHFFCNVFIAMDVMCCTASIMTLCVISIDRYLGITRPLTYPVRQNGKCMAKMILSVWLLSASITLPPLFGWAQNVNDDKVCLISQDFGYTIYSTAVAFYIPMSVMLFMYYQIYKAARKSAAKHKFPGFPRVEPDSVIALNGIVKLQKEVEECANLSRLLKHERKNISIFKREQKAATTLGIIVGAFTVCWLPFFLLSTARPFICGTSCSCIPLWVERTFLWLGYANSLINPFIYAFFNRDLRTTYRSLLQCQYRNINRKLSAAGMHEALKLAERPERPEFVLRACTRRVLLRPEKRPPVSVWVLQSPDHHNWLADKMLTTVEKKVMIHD
T3 sequence (P28222 whole entry): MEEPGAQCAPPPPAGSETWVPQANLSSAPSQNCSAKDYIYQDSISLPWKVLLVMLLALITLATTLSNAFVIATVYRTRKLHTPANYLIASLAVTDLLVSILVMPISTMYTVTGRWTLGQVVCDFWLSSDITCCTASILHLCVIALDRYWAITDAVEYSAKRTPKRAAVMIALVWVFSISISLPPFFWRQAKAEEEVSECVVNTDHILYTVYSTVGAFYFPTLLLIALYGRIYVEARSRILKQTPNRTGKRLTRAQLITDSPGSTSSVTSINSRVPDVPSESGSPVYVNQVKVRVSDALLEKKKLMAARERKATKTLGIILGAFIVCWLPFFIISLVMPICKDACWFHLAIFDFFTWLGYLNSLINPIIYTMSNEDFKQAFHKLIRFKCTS

The term Ki denotes a measure of affinity in units of concentration, obtained from inhibition or displacement. `CC1CCN(CCCCC(=O)n2c3ccccc3c3ccccc32)CC1` yielded a Ki in [1] of 592 nM.
Consider `O=C(CCCCCN1CCOCC1)n1c2ccccc2c2ccccc21`, for which affinity in test [1] was put at a Ki of 1310 nM.
Still for that read-out and setting: the value for `O=C(CCCCCN1CCCCCC1)n1c2ccccc2c2ccccc21` was 616 nM.
Same read-out and setting: the value for `CN(CCCCC(=O)n1c2ccccc2c2ccccc21)Cc1ccccc1` was 513 nM; that for `CC1CC(C)CN(CCCCC(=O)n2c3ccccc3c3ccccc32)C1` (stereo unspecified) was 1400 nM.
For orientation: inhibition means the change of the read-out against control, counted positive when it falls. As for `COc1ccccc1N1CCN(CCCCC(=O)n2c3ccccc3c3ccccc32)CC1`, the Ki in [1] turned out to be 30 nM; in test [2], 30 nM; in test [3], 122 nM; in test [5] it was 3740 nM; in test [6], 462 nM; in test [8], 451 nM. Besides, the figures for the Ki in test [9], in test [11] and in test [14] were 93 nM, 1170 nM and 5 nM, respectively. Also, the Ratio Ki in the test filed under Homo sapiens [4] is 4.1; in the test filed under Homo sapiens [7] it was 15; in the test listed under Homo sapiens [10], 3.1; in the test filed under Homo sapiens [12], 39; in the test listed under Homo sapiens [15], 0.17. Also, the results for the inhibition in test [13] and in test [16] were 24% and 44%, respectively.
As to `CNCCC(Oc1ccc(C(F)(F)F)cc1)c1ccccc1` (stereo unspecified) [FLUOXETINE], the Time with Mus musculus is recorded as 83.9 s.
In the case of `CN1CCN(CCCCC(=O)n2c3ccccc3c3ccccc32)CC1`, in test [17], the inhibition worked out at 40%.
As for `CC1CCCN(CCCCCC(=O)n2c3ccccc3c3ccccc32)C1` (stereo unspecified), the Ki in [1] was determined as 550 nM.
`CCCCN(C)CCCCC(=O)n1c2ccccc2c2ccccc21`: the inhibition constant (Ki) in [1] amounted to 1280 nM.
The compound `O=C(CCCCN1CCCC1)n1c2ccccc2c2ccccc21` gave a Ki in test [1] of 2160 nM.
On the same count and under the same terms, the value for `O=C(CCCCCN1CCC(c2ccccc2)CC1)n1c2ccccc2c2ccccc21` was 157 nM.
As to `O=C(CCCCCN1CCN(c2ccccc2O)CC1)n1c2ccccc2c2ccccc21`, the Ki came to 38 nM in test [1]; 38 nM in test [2]; 148 nM in test [3]; 28 nM in test [6]; 101 nM in [9]; 1390 nM in [11]. For the same compound, the inhibition constant (Ki) in test [14] was determined as 933 nM; in [20], 595 nM. Also, the Ratio Ki came out at 3.9 in the test listed under Homo sapiens [4]; 0.74 in the test filed under Homo sapiens [7]; 2.7 in the test filed under Homo sapiens [10]; 37 in the test listed under Homo sapiens [12]; 25 in the test listed under Homo sapiens [15]; 16 in the test filed under Homo sapiens [21]. Also, the inhibition in test [18] came to 48%; in test [19], 13%; in test [13], 41%.
`O=C(CCCCCN1CCCC1)n1c2ccccc2c2ccccc21` displayed a Ki in test [1] of 1050 nM.
Still for that read-out and setting: under `CC1CC(C)CN(CCCCCC(=O)n2c3ccccc3c3ccccc32)C1` (stereo unspecified) stands 833 nM; under `CCCCN(C)CCCCCC(=O)n1c2ccccc2c2ccccc21`, 680 nM.
As to `CC(=O)N1CCN(CCCCCC(=O)n2c3ccccc3c3ccccc32)CC1`, in test [1], the inhibitory constant (Ki) came to 2340 nM.
For `O=C(CCCCN1CCOCC1)n1c2ccccc2c2ccccc21`, the inhibition in test [17] was determined as 47%.
In [1], `CN1CCN(CCCCCC(=O)n2c3ccccc3c3ccccc32)CC1` displayed an inhibition constant Ki of 1910 nM.
`O=C(CCCCN1CCCCCC1)n1c2ccccc2c2ccccc21` showed an inhibition constant Ki in test [1] of 949 nM.
As for `O=C(CCCCN1CCN(c2ccccc2O)CC1)n1c2ccccc2c2ccccc21`, the inhibition constant (Ki) in test [1] is 86 nM; in test [3] it was 22 nM; in test [6], 1400 nM; in test [8] it was 257 nM; in test [9], 83 nM; in [11], 1520 nM. In addition, the values for the inhibition constant (Ki) in test [14] and in [20] were 337 nM and 879 nM, respectively. The Ratio Ki worked out at 0.26 in the test listed under Homo sapiens [4]; 16 in the test listed under Homo sapiens [7]; 0.97 in the test filed under Homo sapiens [10]; 18 in the test listed under Homo sapiens [12]; 3.9 in the test filed under Homo sapiens [15]; 10 in the test filed under Homo sapiens [21]. Also, the figures for the inhibition in test [18] and in [13] were 37% and 41%, respectively.
For `O=C(CCCCN1CCC(Cc2ccccc2)CC1)n1c2ccccc2c2ccccc21`, in test [1], the Ki is 312 nM.
Consider `O=C(CCCCN1CCC(c2ccccc2)CC1)n1c2ccccc2c2ccccc21`, for which, in test [1], the affinity, expressed as Ki, was 153 nM.
Still for that read-out and setting: under `O=C(CCCCCN1CCC(Cc2ccccc2)CC1)n1c2ccccc2c2ccccc21` stands 252 nM.
Turning to `CC(=O)N1CCN(CCCCC(=O)n2c3ccccc3c3ccccc32)CC1`, the inhibition constant Ki in test [1] came to 1070 nM.
